Reference: EP4631939A1, “SALT AND CRYSTAL FORM OF ANTI-TUMOR HETEROCYCLIC COMPOUND” (CSPC Zhongqi Pharmaceutical Technology (Shijiazhuang) Co., …, priority 2022, dated 2024)

Columns and labels:
PRMT5 = target: T1, PRMT5 (Homo sapiens, UniProt O14744); assay: PRMT5 enzymatic activity inhibition test ([3H]-SAM FlashPlate); format: biochemical; settings: for IC50: 5 nM PRMT5, 0.3 µM [3H]-SAM, 100 nM polypeptide substrate
T1 construct: purchased Active Motif 31921
Method: A 1× enzyme reaction buffer was prepared using 10 mM Tris 8.0 (Sigma, Cat. No. T2694-1L), 0.01% Tween-20 (Sigma, Cat. No. P2287-100ML), and 1 mM DTT (Sigma, Cat. No. D0632-10G). […] Subsequently, the concentration (X) and corresponding inhibition rate (Inh%) (Y) were input into EXCEL. The XLFit plug-in was then used to fit the data using the built-in four-parameter logistic equation: Y = Bottom + (Top - Bottom)/(1 + (IC50/X) […]). The IC50 (half-maximal inhibitory concentration) value for each compound was then calculated.

Z-138 cells = assay: Z-138 cell growth inhibition test (CellTiter-Glo, 5 days); format: cell-based; settings: Homo sapiens, incubated 5 days (120 h)
Method: The cells were routinely subcultured. After approximately two passages, well-growing cell strains were selected for plating.
• I. The suspension was removed from the incubator, transferred into a 50 mL centrifuge tube, and then centrifuged at 800-1000 rpm for 3-5 min, and the supernatant was discarded. An appropriate volume of culture medium was added to the centrifuge tube, and the cells were gently pipetted to ensure a uniform suspension. Cell counting was performed using the Vi-Cell XR cell counter. • II. Based on the measured cell density, the cell suspension was adjusted to an appropriate concentration. • III. The cell suspension was added to a 384-well plate at a volume of 40 µL/well, with 700 cells/well. For blank control wells, an equal volume of cell-free culture medium was added instead.
• I. The compound was dissolved in 100% DMSO to prepare a 10 mM stock solution. • II. […]
The assay was performed according to the instructions of the Promega CellTiter-Glo luminescent cell viability assay kit (Promega-G7573): • I. The CellTiter-Glo buffer was thawed and let stand at room temperature. • II. […] The luminescence signals were detected on 2104 EnVision plate reader. […]
The dose-response inhibition curve was plotted using XLFit, and IC50 values were calculated using the four-parameter logistic model: [fit = (A + ((B - A)/(1 + ((C/x) ^ D))))].

[1] = tested on: human origin B-cell non-Hodgkin's lymphoma Z-138 cell strain; assay: Subcutaneous Z-138 xenograft in mice; format: in vivo; settings: subcutaneous xenograft in female NOD/SCID mice

T1 sequence (O14744 whole entry): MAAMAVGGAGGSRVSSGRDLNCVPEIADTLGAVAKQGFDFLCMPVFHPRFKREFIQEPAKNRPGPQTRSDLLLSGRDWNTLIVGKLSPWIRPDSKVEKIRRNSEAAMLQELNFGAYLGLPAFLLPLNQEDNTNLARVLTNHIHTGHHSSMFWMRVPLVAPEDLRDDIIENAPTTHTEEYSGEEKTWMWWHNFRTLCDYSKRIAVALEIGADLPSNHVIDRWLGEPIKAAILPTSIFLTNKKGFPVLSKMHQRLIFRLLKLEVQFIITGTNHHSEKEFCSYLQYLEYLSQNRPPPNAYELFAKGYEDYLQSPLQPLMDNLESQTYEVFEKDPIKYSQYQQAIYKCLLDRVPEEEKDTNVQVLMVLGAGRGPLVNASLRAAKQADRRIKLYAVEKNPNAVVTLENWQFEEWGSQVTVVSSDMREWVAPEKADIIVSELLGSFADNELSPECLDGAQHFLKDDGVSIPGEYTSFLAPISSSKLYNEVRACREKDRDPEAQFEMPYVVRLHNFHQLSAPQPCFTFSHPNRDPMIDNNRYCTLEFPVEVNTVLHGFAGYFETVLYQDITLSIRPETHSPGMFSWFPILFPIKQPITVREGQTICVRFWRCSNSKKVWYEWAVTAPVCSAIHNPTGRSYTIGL
T1 sequence (Q9BQA1 whole entry partner): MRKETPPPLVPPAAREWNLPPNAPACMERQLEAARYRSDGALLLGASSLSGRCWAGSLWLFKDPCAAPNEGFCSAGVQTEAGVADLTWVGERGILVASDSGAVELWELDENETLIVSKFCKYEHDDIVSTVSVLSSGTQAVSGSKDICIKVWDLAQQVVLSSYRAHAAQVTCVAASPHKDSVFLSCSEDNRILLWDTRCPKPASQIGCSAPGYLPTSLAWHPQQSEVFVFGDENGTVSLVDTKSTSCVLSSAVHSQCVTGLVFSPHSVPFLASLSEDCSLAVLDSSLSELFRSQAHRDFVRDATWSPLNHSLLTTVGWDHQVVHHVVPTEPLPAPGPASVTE

Compound | IC50 (PRMT5) [nM] | IC50 (Z-138 cells) [nM] | inhibitory activity against the enzymatic activity (PRMT5; in vitro, statement in words) | tumor inhibition effects [1]
CC(=O)N1CCC(Nc2cc(C(=O)N3CCC(N4CCc5ccccc5C4)CC3)nc(C)n2)CC1 [reference compound, reference compound] | 115 | 2710 |  | 
CC(C)Oc1nc(NC2CCN(C(=O)c3ccccc3)CC2)cc(C(=O)N2CC[C@@H](N3CCc4ccccc4C3)[C@H](O)C2)n1 [Example 1, (6-((1-benzoylpiperidin-4-yl)amino)-2-isopropoxypyrimidin-4-yl)((3R,4R)-4-(3,4-dihydroisoquinolin-2(1H)-yl)-3-hydroxypiperidin-1-yl)methanone] | 6.4 | 46.6 | strong inhibitory effects | excellent tumor inhibition effects
